Here are results for 12 compounds from paper PMC4004266, “Understanding the Structural Requirements for Activators of the Kef Bacterial Potassium Efflux System” (Biochemistry, 2014).

“And” between values parts separate entries of the source, which are not always exact repeats. Equal values may be shown once. “Also recorded” adds a separate entry of the source.

Assay [1] deals with T1, SdKefQCTD (Shewanella denitrificans, UniProt Q12SB3). Nature of the assay: Quantitative fluorescence competition experiment using DNGSH as probe (emission peak). It counts as binding, Shewanella denitrificans OS217. The conditions noted are these: for no. of sites (n): competition with DNGSH, sites per subunit.
Assay [2] relates to SdKef. Nature of the assay: Whole cell potassium efflux assay. It counts as cell-based, Shewanella denitrificans OS217. The conditions noted are these: for K+ efflux (activation of Kef): E. coli MJF335 transformed with wild-type SdKef, grown with GSH, electrophile 0.5 mM. As for the experimental part:
Potassium efflux experiments were performed as described previously.[7] Potassium efflux was measured, using an ion selective potassium electrode (ELIT 8031, Nico2000) and a lithium acetate reference electrode (ELIT 003n) with a four-channel ion analyzer (ELIT4), in 2 s intervals. Freshly transformed cells [either E. coli MJF335 cells lacking KefB, KefC, and GshA or MJF645 cells (lacking KefF and KefG in addition to KefB, KefC, and GshA)] were cultured in K115 minimal medium, containing 1 mM GSH, at 37 °C to an OD650 of ∼0.8–1.[11] The cells were filtered and washed with K10 buffer before being suspended in 5 mL of potassium-free K0 buffer. The cells were added to 30 mL of K0 medium in a stirred vessel held at 37 °C with equilibrated electrodes inserted. After 5 min, the electrophile was added to a final concentration of 0.5 mM [except for methylglyoxal (MG), which was added at a concentration of 0.8 mM[6]]. Rate constants were obtained by fitting exponentials to the change in potassium concentration after addition of the electrophile using Origin version 8.0 (Originlab).[7]

For assay [3], the target named is SdKefQCTD (soluble construct of the cytosolic regulatory domain of Kef from Shewanella denitrificans OS217, including the Q-linker) (Shewanella denitrificans OS217). Nature of the assay: static multiangle light scattering; purified SdKefQCTD in solution; unpublished observations of the authors; 52.0 ± 2.5 kDa particles against 26.4 kDa per monomer.
Assay [4] concerns the target T1, SdKefQCTD. Nature of the assay: Differential scanning fluorimetry (DSF). The conditions noted are these: 1 mM ligand, relative to protein alone. Type of assay: binding, Shewanella denitrificans OS217. For orientation: DSF heats the sample and reads unfolding from a dye or from intrinsic fluorescence.
Assay [5] deals with T1, SdKefQCTD. Put plainly: Isothermal titration calorimetry (ITC). Type of assay: binding, Shewanella denitrificans OS217. The conditions noted are these: for no. of sites (n): sites per subunit. Background: Isothermal titration calorimetry measures the heat released or taken up as one component is titrated into another.
Assay [6] concerns the target T1, SdKefQCTD. Nature of the assay: Qualitative fluorescence competition assay with DNGSH (FB:FL ratio). Type of assay: binding, Shewanella denitrificans OS217. The conditions noted are these: 1 mM competing ligand, 6 μM SdKefQCTD, 5 μM DNGSH, 525 nm.
For assay [7], the target named is T1, SdKefQCTD. Put plainly: Steady state fluorescence anisotropy titration of DNGSH. Type of assay: binding, Shewanella denitrificans OS217. As for the experimental part:
(§1) Measurements were performed in buffer C, using a 100 μL cuvette with 3 mm excitation and emission path lengths (Hellma GmbH & Co.) at 20 °C and an Edinburgh Instruments FLS920 spectrometer. Samples containing SdKefQCTD and DNGSH were excited at 340 nm, and emission spectra were measured from 395 to 670 nm. The steady state fluorescence anisotropy was measured with excitation at 340 nm and emission between 540 and 560 nm. Competition experiments were performed using samples pretreated with excess DNGSH, at a 2× protein concentration, and titrated with the ligand under study.
The data were fit using a standard saturation isotherm (see the Supporting Information for further information). For DNGSH fluorescence, λL was measured directly and found to be 572.5 nm. […]
(§2) Analysis of ligand binding by fluorescence spectroscopy. […]
(§3) The conservation of mass for SdKefQCTD is given by n[M]0 = [M] + [ML] where the total concentration of SdKefQCTD subunits is [M]0, n is the number of active binding sites per M, [L]0 is the total concentration of ligand and the concentration of free ligand is [L]. […] If these expressions are substituted into equation 1, a quadratic equation for the protein-ligand complex [ML] is obtained that can be solved for [ML] and expressed as the fraction of bound ligand, fB (equation 2). […]
Two fluorescence parameters were used to obtain fB from experimental data. […]
In general terms: In fluorescence polarisation assays a small probe gives low polarisation when free and higher when bound to something large.

For assay [8], the target named is T1, SdKefQCTD. Put plainly: Direct titration of DNGSH, fluorescence emission peak position (λmax). Type of assay: binding, Shewanella denitrificans OS217. On the procedure: as §1
The data were fit using a standard saturation isotherm (see the Supporting Information for further information). For DNGSH fluorescence, λL was measured directly and found to be 572.5 nm. Inverse titrations with high SdKefQCTD concentrations allowed a good estimation of the emission maximum for the bound form (λML) as 530 nm with a quantum yield (Q) of 4. These three parameters were kept fixed during the fitting while Kd and n were optimized. […]
as §2, §3
Two fluorescence parameters were used to obtain fB from experimental data. The peak position in the emission spectrum, λmax, was obtained by fitting a skewed Gaussian to the experimental spectra as described earlier (1). λmax was used as it was less easily disturbed than fluorescence intensity. Secondly, steady state fluorescence anisotropy, robs, was used. […]
sums depending on the fluorescence intensity of the bound and free ligand, IML and […]

Assay [9] has as its system SdKefQCTD Q419K mutant. Put plainly: DNGSH titration to Q419K mutant (background binding), emission peak. Set-up: species or system Shewanella denitrificans OS217. The conditions noted are these: titration of DNGSH to 7 μM SdKefQCTD Q419K.
The mark [10] stands for this setting: emission peak, competition with DNGSH (Kd 6 μM used for DNGSH).
[11] abbreviates: ITC, 25 °C, one-site model, read-out: Kd.

T1 sequence (Q12SB3 entry or part of it): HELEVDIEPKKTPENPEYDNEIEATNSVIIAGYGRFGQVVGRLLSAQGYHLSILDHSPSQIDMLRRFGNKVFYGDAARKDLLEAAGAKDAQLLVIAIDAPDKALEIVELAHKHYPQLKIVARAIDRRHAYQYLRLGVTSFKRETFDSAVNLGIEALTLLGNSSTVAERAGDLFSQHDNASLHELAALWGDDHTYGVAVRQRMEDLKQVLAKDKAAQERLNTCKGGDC

`CCCCCC(=O)CCSC[C@H](NC(=O)CC[C@H](N)C(=O)O)C(=O)NCC(=O)O` [Compound 12] gave a Kd in [1] (setting [10]) of 4.4 ± 0.5 µM. In addition, the “no. of sites (n)” value in assay [1] (emission peak) turned out to be 0.81 ± 0.05.
`CCN1C(=O)C=CC1=O` [NEM, N-ethylmaleimide]: in assay [2] (SdKef expressed in E. coli strain lacking KefFC and KefGB (MJF645), after addition of electrophile), the “rate constant for K+ efflux” value is listed as “high rate constant for K^+ efflux”.
Turning to “SdKefQCTD (soluble construct of the cytosolic regulatory domain of Kef from Shewanella denitrificans OS217, including the Q-linker) (domain or fragment)”, the stoichiometry N in assay [3] was determined as 2 subunits.
Turning to `N[C@@H](CCC(=O)N[C@@H](CS)C(=O)NCC(=O)O)C(=O)O` [GSH, glutathione, reference compound], the “change in protein melting temperature (ΔTm)” value in [4] is given as “negligible change”. Moreover, the “ITC signal on titration” value in [5] (could not be analyzed, data not shown) is on record as “Only small signals”. In assay [1], this compound had a Kd of 900 ± 200 µM. For the same compound, the “no. of sites (n)” value in [1] (emission peak) is 0.83 ± 0.04. In assay [6], the “DNGSHbound:DNGSHligand ratio of fluorescence (FB:FL), Kef binding” value (“DNGSHbound:DNGSHligand ratio” below) is on record as “low FB:FL ratios”.
Take `N[C@@H](CCC(=O)N[C@@H](CSC1CC(=O)CC1=O)C(=O)NCC(=O)O)C(=O)O` (stereo partly shown) [Compound 8]: in assay [6], the “DNGSHbound:DNGSHligand ratio” value was “reduced binding affinity for Kef”.
As to `O=C1C=CC(=O)N1Cc1ccccc1` [Compound 16], the “K+ efflux (activation of Kef)” value in assay [2] is given as “caused significant K^+ release”.
As for `CN(C)c1cccc2c(S(=O)(=O)NCCCSC[C@H](NC(=O)CC[C@H](N)C(=O)O)C(=O)NCC(=O)O)cccc12` [DNGSH, S-{[5-(dimethylamino)naphthalen-1-yl]sulfonylaminopropyl} glutathione], the Kd in assay [7] was found to be 8 ± 2 µM; in assay [8], 6 ± 2 µM; in assay [5], 19 ± 6 µM. Besides, the “no. of sites (n)” value in assay [7] (fluorescence anisotropy, sites per subunit) is 1.1 ± 0.8; in assay [8] (emission peak, active binding sites per subunit), 0.6 ± 0.2; in [5] (ITC), 0.7 ± 0.1 and 0.7 ± 0.2. For the same compound, in [8] (DNGSH binding), the “Hill coefficient (nH)” value is listed as 1. For the same compound, the “binding to Q419K mutant” value in [9] is “unable to bind”.
`O=C1C=CC(=O)N1C1CCCCC1` [Compound 17, N-cyclohexylmaleimide]: in assay [2], the “K+ efflux (activation of Kef)” value is recorded as “causes rapid K^+ efflux”.
Consider `CC(C)(C)N1C(=O)CC(SCC(NC(=O)CCC(N)C(=O)O)C(=O)NCC(=O)O)C1=O` (stereo not shown) [Compound 5, N-tert-butylsuccinimido-S-glutathione], for which the “change in protein melting temperature (ΔTm)” value in assay [4] is “greatest ΔTm”. Moreover, the Kd in assay [5] (setting [11]) was 6.7 ± 0.27 µM; in [1] (setting [10]), 0.4 ± 0.2 µM. In addition, the “no. of sites (n)” value in assay [5] (ITC) was 0.41 ± 0.04; in assay [1] (emission peak) it was 0.7 ± 0.2. Also, the “DNGSHbound:DNGSHligand ratio” value in assay [6] is on record as “greatest Kef affinity”.
Regarding `N[C@@H](CCC(=O)N[C@@H](CSC1CCCC1=O)C(=O)NCC(=O)O)C(=O)O` (stereo partly shown) [Compound 9], in assay [2], the “K+ efflux (activation of Kef)” value is given as “no activation of K^+ efflux”. Moreover, the “DNGSHbound:DNGSHligand ratio” value in assay [6] is given as “reduced binding affinity for Kef”.
In the case of `C=CC(=O)CCCCC` [Compound 22, 1-octen-3-one], the “K+ efflux (activation of Kef)” value in assay [2] is listed as “less effective at causing K^+ release; also recorded: causes little K^+ efflux”.
In the case of `CCN1C(=O)CC(SCC(NC(=O)CCC(N)C(=O)O)C(=O)NCC(=O)O)C1=O` (stereo not shown) [ESG, N-ethylsuccinimido-S-glutathione, reference compound], the Kd turned out to be 23 ± 4 µM in assay [5] (setting [11]) and 12 ± 3 µM in assay [1] (setting [10]). Also, the figures for the “no. of sites (n)” value in assay [5] (ITC) and in assay [1] (emission peak) were 0.38 ± 0.05 and 0.7 ± 0.2, respectively. The “DNGSHbound:DNGSHligand ratio” value in [6] is reported as “high FB:FL ratios”.

The Kd is the constant that tells how readily two partners part at equilibrium. In general, stoichiometry N refers to the number of molecules, sites or subunits per partner or assembly.
